# Measurements published in patent publication US7026339B2, “Inhibitors of HCV NS5B polymerase” (priority 2003, dated 2006).
# System: HuH-7 replicon cells 5–15 and 9–13 (HCV replication)
# Test: Inhibition of viral replication in HuH-7 replicon cells (HCV RNA / GAPDH RNA by multiplex RT-PCR)
# Assay type: cell-based
# Conditions: Hepatitis C virus, 72 h; inhibiting 50% of replication; HuH-7 replicon cells, 3 days; read-out: IC50
# Procedure, shortened: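 HCV and GAPDH RNA were measured by multiplex TaqMan RT-PCR (HCV 5′ untranslated region) after 3-day compound treatment at 37 °C, final 100 μM–1 μM in 1% DMSO. Cells were plated 24 h beforehand at 7×10^3/well. Read-out: HCV-to-GAPDH ratio expressed as percent control versus untreated cells.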
row,Structure (SMILES),IC50
1,"CC(=O)Nc1ccc(CNc2cccc(CC(=O)N/N=C/c3ccccc3OS(=O)(=O)c3ccc(C(F)(F)F)cc3)c2)cc1 [Compound 99, 2-((E)-{2-[2-(3-{[4-(acetylamino)benzyl]amino}phenyl)acetyl]-hydrazono}methyl)phenyl 4-(trifluoromethyl)benzenesulfonate]",< 5 µM
2,"O=C(Cc1cccc(Br)c1)N/N=C/c1ccccc1OS(=O)(=O)c1ccc(C(F)(F)F)cc1 [Compound 62, 2-((E)-{2-[2-(3-bromophenyl)acetyl]hydrazono}methyl)-phenyl 4-(trifluoromethyl)benzenesulfonate]",< 5 µM
3,"COc1cccc(CC(=O)N/N=C/c2ccccc2OS(=O)(=O)c2ccc(Oc3ccccc3)nc2)c1 [Compound 201, 2-((E)-{2-[2-(3-methoxyphenyl)acetyl]hydrazono}methyl)-phenyl 6-phenoxypyridine-3-sulfonate]",< 5 µM
4,"CN(c1ccccc1/C=N/NC(=O)Cc1cccc(Br)c1)S(=O)(=O)c1ccc(C(F)(F)F)cc1 [Compound 245, N-[2-((E)-{[(3-bromophenyl)acetyl]hydrazono}methyl)-phenyl]-N-methyl-4-(trifluoromethyl)benzenesulfonamide]",< 5 µM
5,"Cc1ccc(S(=O)(=O)Oc2cccc(F)c2/C=N/NC(=O)Cc2cccc(Cl)c2)cc1 [Compound 205, 2-((E)-{[(3-chlorophenyl)acetyl]hydrazono}methyl)-3-fluorophenyl 4-methylbenzenesulfonate]",5 to 50 µM
6,"COc1ccc(CC(=O)N/N=C/c2ccccc2N(C)S(=O)(=O)c2ccc(C(F)(F)F)cc2)cc1OC [Compound 246, N-[2-((E)-{[(3,4-dimethoxyphenyl)acetyl]hydrazono}methyl)-phenyl]-N-methyl-4-(trifluoromethyl)benzenesuIfonamide]",< 5 µM
7,"O=C(Cc1ccccc1)N/N=C/c1ccccc1OS(=O)(=O)c1ccc(Cl)c(Cl)c1 [Compound 125, 2-{(E)-[2-(2-phenylacetyl)hydrazono]methyl}phenyl3,4-dichlorobenzenesulfonate]",< 5 µM
8,"O=C(CC1CCCCC1)N/N=C/c1ccccc1OS(=O)(=O)c1ccc(C(F)(F)F)cc1 [Compound 45, 2-{(E)-[2-(2-cyclohexylacetyl)hydrazono]methyl}phenyl4-(trifluoromethyl)benzenesulfonate]",< 5 µM
9,"Cc1ccc(COc2ccccc2/C=N/NC(=O)Cc2ccccc2)cc1 [Compound 235, N′-((1E)-{2-[(4-methylbenzyl)oxy]phenyl}methylene)-2-phenylacetohydrazide]",> 50 µM
10,"COc1ccc(S(=O)(=O)Oc2ccccc2/C=N/NC(=O)Cc2ccccc2)cc1 [Compound 131, 2-{(E)-[2-(2-phenylacetyl)hydrazono]methyl}phenyl 4-methoxybenzenesulfonate]",< 5 µM
11,"O=C(Cc1ccccc1)N/N=C/c1ccccc1OS(=O)(=O)c1cccc(Cl)c1 [Compound 116, 2-{(E)-[2-(2-phenylacetyl)hydrazono]methyl}phenyl 3-chlorobenzenesulfonate]",> 50 µM
12,"O=C(Cc1ccccc1OCc1ccccc1)N/N=C/c1ccccc1OS(=O)(=O)c1ccc(C(F)(F)F)cc1 [Compound 56, 2-[(E)-(2-{2-[2-(benzyloxy)phenyl]acetyl}hydrazono)methyl]-phenyl 4-(trifluoromethyl)benzenesulfonate]",< 5 µM
13,COc1cccc(CC(=O)N/N=C/c2cc(Br)ccc2OS(=O)(=O)c2ccc(C(F)(F)F)cc2)c1 [Compound 166],< 5 µM
14,"O=C(Cc1ccc(I)cc1)N/N=C/c1ccccc1OS(=O)(=O)c1ccc(C(F)(F)F)cc1 [Compound 60, 2-((E)-{2-[2-(4-iodophenyl)acetyl]hydrazono}methyl)-phenyl 4-(trifluoromethyl)benzenesulfonate]",< 5 µM
15,"COc1cccc(CC(=O)N/N=C/c2cccc(OC)c2OS(=O)(=O)c2ccc(C)cc2)c1 [Compound 160, 2-methoxy-6-((E)-{[(3-methoxyphenyl)acetyl]hydrazono}methyl)-phenyl 4-methylbenzenesulfonate]",5 to 50 µM
